Measurements reported in ChEMBL document CHEMBL3407368, “Further studies on anti-invasive chemotypes: An excursion from chalcones to curcuminoids” (Bioorg Med Chem Lett, 2015).
Calls of active or inactive are those of the source. The rule behind the calls is not given here.

Assays:
[1] = Cytotoxicity against human MCF7/6 cells at 10 umol/l; type: cell-based; details: mcf7/6, 10 µM
[2] = Antiinvasive activity against human MCF7/6 cells precultured with 9 day old chick embryo heart tissue fragment assessed as lowest concentration by chick heart invasion assay; type: functional
[3] = tested on: MCF7/6; assay: Antiinvasive activity against human MCF7/6 cells precultured with 9 day old chick embryo heart tissue fragment at 0.1 micromol/l by chick heart invasion assay; type: functional, cell-based
[4] = tested on: MCF7/6; assay: Antiinvasive activity against human MCF7/6 cells precultured with 9 day old chick embryo heart tissue fragment at 10 micromol/l by chick heart invasion assay; type: functional, cell-based
[5] = tested on: MCF7/6; assay: Antiinvasive activity against human MCF7/6 cells precultured with 9 day old chick embryo heart tissue fragment at 1 micromol/l by chick heart invasion assay; type: functional, cell-based
[6] = Cytotoxicity against human MCF7/6 cells at 100 umol/l; type: cell-based; details: mcf7/6, 100 µM
[7] = tested on: MCF7/6; assay: Antiinvasive activity against human MCF7/6 cells precultured with 9 day old chick embryo heart tissue fragment at 100 micromol/l by chick heart invasion assay; type: functional, cell-based
[8] = tested on: MCF7/6; assay: Antiinvasive activity against human MCF7/6 cells precultured with 9 day old chick embryo heart tissue fragment at 0.01 micromol/l by chick heart invasion assay; type: functional, cell-based

## O=C(/C=C/c1ccc(O)cc1)CC(=O)/C=C/c1ccc(O)cc1 [BISDEMETHOXYCURCUMIN]
[1]
  Activity: Toxic
[2]
  logMIC: 1
[3]
  Activity: inactive
[4]
  Activity: Active
[5]
  Activity: inactive

## COc1cc(C(=O)/C=C/C=C/c2ccccc2)cc(OC)c1OC
[6]
  Activity: Toxic
[1]
  Activity: Toxic
[7]
  Activity: Active
[8]
  Activity: inactive
[2]
  logMIC: 1
[3]
  Activity: inactive
[4]
  Activity: Active
[5]
  Activity: inactive

## O=C(/C=C/C=C/c1ccccc1)c1ccccc1
[6]
  Activity: Toxic
[1]
  Activity: Toxic
[7]
  Activity: Active
[2]
  logMIC: 2
[3]
  Activity: inactive
[4]
  Activity: inactive
[5]
  Activity: inactive

## COc1cc(C(=O)/C=C/c2ccc(F)cc2)cc(OC)c1OC
[1]
  Activity: Non-toxic
[8]
  Activity: Active
[2]
  logMIC: -2
[3]
  Activity: Active
[4]
  Activity: Active
[5]
  Activity: Active

## COc1cc(/C=C/C(=O)CC(=O)/C=C/c2ccc(O)c(OC)c2)ccc1O [CURCUMIN]
[2]
  logMIC: 1
[3]
  Activity: inactive
[4]
  Activity: Active
[5]
  Activity: inactive

## O=C(/C=C/c1ccccc1)/C=C/c1ccccc1
[6]
  Activity: Toxic
[7]
  Activity: Active
[8]
  Activity: inactive
[2]
  logMIC: 0
[3]
  Activity: inactive
[4]
  Activity: Active
[5]
  Activity: Active

## COc1cc(/C=C\c2ccc(F)cc2)cc(OC)c1OC
[2]
  logMIC: 1

## COc1cc(/C=C/c2ccc(F)cc2)cc(OC)c1OC
[2]
  logMIC: 0

## O=C(/C=C/C=C/c1ccccc1)/C=C/c1ccccc1
[6]
  Activity: Toxic
[7]
  Activity: Active
[8]
  Activity: inactive
[2]
  logMIC: 0
[3]
  Activity: inactive
[4]
  Activity: Active
[5]
  Activity: Active

## C(=C\c1ccccc1)/c1ccccc1
[2]
  logMIC: -1

## O=C(/C=C/C=C/c1ccccc1)c1ccc(Cl)cc1
[7]
  Activity: Active
[2]
  logMIC: 3
[3]
  Activity: inactive
[4]
  Activity: inactive
[5]
  Activity: Active

## COc1cc(C(=O)/C=C/C=C/c2ccc(F)cc2)cc(OC)c1OC
[1]
  Activity: Toxic
[2]
  logMIC: 1
[3]
  Activity: inactive
[4]
  Activity: Active
[5]
  Activity: inactive

## O=C(/C=C/c1ccccc1)c1ccccc1 [CHALCONE]
[2]
  logMIC: 1
[4]
  Activity: Active
[5]
  Activity: inactive

## O=C(/C=C/C=C/c1ccccc1)c1ccc(F)cc1
[6]
  Activity: Toxic
[1]
  Activity: Toxic
[7]
  Activity: Active
[8]
  Activity: inactive
[2]
  logMIC: 0
[3]
  Activity: inactive
[5]
  Activity: Active
